Measurements taken from US7803619B2, “Embryoid body-based screen” (Geneprotech, Inc., priority 2004, dated 2010).

Key:
[1] = test system: EB from ES cell line (ES-6) containing necdin-puromycin-IRES-β-galactosidase cassette; assay: Embryoid body neurogenesis screen: necdin promoter-driven β-galactosidase expression; assay type: cell-based, mouse; details: 48 h exposure
Experimental: A brief description of the procedure follows. A tagged ES cell line containing a stably integrated necdin-puromycin-IRES-β-galactosidase cassette was allowed to form EBs. One thousand cells in 200 μl media without LIF were plated in a 96-well PCR plate. On the third day, the EBs were transferred to a 96-well tissue culture plate coated with laminin. The medium was changed on the fourth day and appropriate small molecule compounds were added with each compound being assessed in triplicate. Six wells received no treatment and six wells received treatment with vehicle control (DMSO or ethanol diluted in similar manner as small molecule compounds). The cells were incubated with compounds for 48 hours, compounds removed by washing with PBS and cells allowed to grow and differentiate in media for 4 days. Cells were lysed on the fifth day and the lysates were analyzed for β-galactosidase expression. […] Two positive controls, 50 ng/ml nerve growth factor (NGF) and 1 uM retinoic acid (RA) (Sigma Chemical, St. Louis) and small molecule compounds (piperine, curcumin, rosmarinic acid, U0126, LY294002) were used for screening. Fold increase was calculated based on the respective vehicle control […] activity. […] This is not surprising since NGF is a stronger neurogenic growth factor than is RA. […]
An ES cell line (ES-6; Preliminary Studies Section C.2.) containing a stably integrated necdin-puromycin-IRES-β-galactosidase cassette was allowed to form EB. […] The medium was changed on the fourth day and appropriate small molecule compounds were added with each compound being assessed in triplicate. […] Cells were lysed on the fifth day and the lysates were analyzed for β-galactosidase expression. […] Fold increase was calculated based on the respective vehicle control β-galactosidase activity. […]
After addition of puromycin to the media, neuronal cells are the anticipated survivors and other cell types are expected to be eliminated. Since activity of the necdin promoter confers β-galactosidase expression, a quantitative measurement of β-galactosidase activity is performed. […]

[2] = test system: myeloid leukemia HL60 cells; details: cited from earlier work
murine ES cells = details: cited from earlier work
chorioallantoic membrane = details: cited from earlier work
EB = details: cited from earlier work
[3] = test system: endothelial cell culture system; details: cited from earlier work

In the case of CC1=C(/C=C/C(C)=C/C=C/C(C)=C/C(=O)O)C(C)(C)CCC1 [RA, retinoic acid], the “Fold increase in neurogenesis (β-galactosidase activity relative to respective vehicle control)” value ([1]; positive control, 1 uM) is reported as 11 fold.

With O=C(/C=C/C=C/c1ccc2c(c1)OCO2)N1CCCCC1 [piperine] the “Fold increase in neurogenesis (β-galactosidase activity relative to respective vehicle control)” value ([1]; small molecule compound at 10 μM, lysed on fifth day after removal) was 3.3 fold.

For boswellic acid acetate, the “Differentiation into monocyte-like cells” value [2] is given as “induces differentiation”.

For nerve growth factor [NGF], the “Fold increase in neurogenesis (β-galactosidase activity relative to respective vehicle control)” value ([1]; positive control, 50 ng/ml) was 30 fold.

For O=C1O[C@H]([C@@H](O)CO)C(O)=C1O [vitamin C, ascorbic acid], the “Number of cardiac myocytes showing rhythmic contractile activity, positive for sarcomeric myosin and alpha-actinin” value (murine ES cells) is listed as “markedly increased”.

In the case of O=C1CCC(N2C(=O)c3ccccc3C2=O)C(=O)N1 (centres unmarked) [thalidomide], the Anti-angiogenic effect (chorioallantoic membrane) is given as “no anti-angiogenic effect”, the Anti-angiogenic effect (EB) is given as “had anti-angiogenic effect” and the Anti-angiogenic effect [3] is given as “no anti-angiogenic effect”.
